Reference: patent US20200115353A1, “NEW COMPOUNDS INHIBITORS OF THE YAP/TAZ-TEAD INTERACTION AND THEIR USE IN THE TREATMENT OF MALIGNANT MESOTHELIOMA” (INVENTIVA, priority 2017, published 2020)

These molecules were tested against T1, YAP-TEAD interaction (full length human TEAD1-Gal4 fusion, full length YAP mutant S127A, S397A) (UniProt P04386+P28347) (assay: Cell-based TEAD-GAL4 transactivation assay (luciferase reporter, HEK293)). Conditions: HEK293 cells, compounds 0.1 μM to 30 μM, 24 h, concentration that inhibited the luciferase activity by 50%.
T1 construct: The TEAD1 construct was prepared by cloning the full length human TEAD1 cDNA; expressed in transfected cells; host or cells: HEK293 GripTite 293 MSR (Invitrogen R795-07), transiently transfected with pSG5_CMV plasmids
T1 sequence (P04386+P28347 fused, stated change not applied): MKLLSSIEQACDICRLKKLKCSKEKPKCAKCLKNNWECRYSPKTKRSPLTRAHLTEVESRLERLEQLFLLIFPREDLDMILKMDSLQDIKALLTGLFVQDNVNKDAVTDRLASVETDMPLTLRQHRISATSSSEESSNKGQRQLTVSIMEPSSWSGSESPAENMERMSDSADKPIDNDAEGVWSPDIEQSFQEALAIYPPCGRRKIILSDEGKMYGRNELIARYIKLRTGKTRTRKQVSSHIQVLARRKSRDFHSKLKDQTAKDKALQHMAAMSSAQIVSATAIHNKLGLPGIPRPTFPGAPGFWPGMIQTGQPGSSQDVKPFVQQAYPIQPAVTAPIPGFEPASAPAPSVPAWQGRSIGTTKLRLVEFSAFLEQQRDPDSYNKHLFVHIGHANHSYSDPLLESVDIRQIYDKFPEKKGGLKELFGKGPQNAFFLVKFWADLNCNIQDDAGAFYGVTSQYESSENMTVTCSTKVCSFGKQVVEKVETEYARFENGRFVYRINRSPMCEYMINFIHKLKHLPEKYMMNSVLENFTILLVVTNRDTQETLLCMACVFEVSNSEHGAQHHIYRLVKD
Protocol: To identify inhibitors of YAP-TEAD interaction, a transient transactivation assays was carried out into HEK293 cell line (HEK293 GripTite™ 293 MSR (Invitrogen R795-07)) using plasmids containing the full length TEAD1 sequences, the full length YAP mutant (S127A, S397A) and a luciferase gene reporter. All expression constructs were performed into pSG5 backbone plasmid in which the SV40 promoter was replaced by the CMV promoter. The TEAD1 construct was prepared by cloning the full length human TEAD1 cDNA in fusion with the Gal4 DNA Binding Domain (AA 1-148) into pSG5_CMV to create the TEAD1(FL)_hum_pSG5Gal4_CMV. The full length YAP mutant (S127A, S397A) was also cloned into pSG_5 CMV to create the YAP(FL)_hum_pSG5_[…]. The reporter plasmid GAL4(5×RE)_[…]_pGL3-Basic contains 5 copies of the GAL4 responsive element (5′-TCGGAGGACAGTACTCC-3′) upstream of the thymidine kinase (TK) promoter (−105/+56) inserted in a pGL3-Basic vector. To evaluate the selectivity of our compounds in blocking the YAP-TEAD interaction, a counter-screening protein-protein interaction transactivation assays was also established. Briefly, two other expression plasmids, the pBD-P53 which express the P53 (AA 72-390) in fusion with Gal4 and the pAD-SV40T which express the SV40 large T antigen (AA 84-708,AgT), were created. HEK293 cells were seeded at 5×10^4 cells/well in 96 well plates (assay plates) in DMEM medium containing 4.5 g/L D-glucose, 10% high inactivated (HI) fetal bovine serum 1% Glutamax, 1% non-essential amino acid and 1% sodium pyruvate and 0.5% penicillin/streptomycin 37° C. in a humidified atmosphere of 8% CO2. After 24 h, transfections are performed using Jet-PEI as transfectant (101B-010 Polyplus Transfection), according to the instructions of the manufacturer (N/P=10) and a ratio YAP/TEAD=10 (per well: 50 ng of YAP(FL), 5 ng of TEAD(FL) and 50 ng of reporter plasmid). Six hours after cell transfection, the plates (‘assay plate’) were washed with 100 μl PBS per well and cell were treated with compounds in semi-log from 0.1 μM to 30 μM or DMSO 0.5% as control in DMEM 4.5 g/L D-Glucose without phenol red, 0.3% BSA, 1% glutamax, 1% NEAA, 1% sodium pyruvate. Twenty-four hours later, the luciferase activity was determined after addition of 100 μl of Steady Glo™ luciferase assay system (Promega E2550) according to the manufacturer's directions. Luciferase activity in cell extracts is measured by reading luminescence using the Envision device.
The cellular response was determined by fitting the concentration response curves using a 3-parameter curve fit equation and determining the concentration that inhibited the luciferase activity by 50%.

Row | Molecule | IC50
1 | CCC1(CC)C(=O)Nc2ccc(/C=N/N(CC(C)C)C3=NS(=O)(=O)c4cc(O)ccc43)cc21 [Ex 96, 3,3-diethyl-5-[(E)-[(6-hydroxy-1,1-dioxo-1,2-benzothiazol-3-yl)-isobutyl-hydrazono]methyl]indolin-2-one] | 10.4 µM
2 | COc1cc(/C=N/N(CC(C)C)C2=NS(=O)(=O)c3ccc(B(O)O)cc32)ccc1F [Ex 94, [3-[[(E)-(4-fluoro-3-methoxy-phenyl)methyleneamino]-isobutyl-amino]-1,1-dioxo-1,2-benzothiazol-5-yl]boronic acid] | 3.31 µM
3 | COc1cc(/C=N/N(C)C2=NS(=O)(=O)c3cc(N)ccc32)ccc1F [Ex 49, N3-[(E)-(4-fluoro-3-methoxy-phenyl)methyleneamino]-N3-methyl-1,1-dioxo-1,2-benzothiazole-3,6-diamine] | 3.11 µM
4 | Cc1ccc2c(c1)C(N(C)/N=C/c1ccc3[nH]c(=O)n(C)c3c1)=NS2(=O)=O [Ex 70, 3-methyl-5-[(E)-[methyl-(5-methyl-1,1-dioxo-1,2-benzothiazol-3-yl) hydrazono]methyl]-1H-benzimidazol-2-one] | 1.58 µM
5 | CC(C)n1c(=O)[nH]c2ccc(/C=N/N(C)C3=NS(=O)(=O)c4ccccc43)cc21 [Ex 26, 5-[(E)-[(1,1-dioxo-1,2-benzothiazol-3-yl)-methyl-hydrazono]methyl]-3-isopropyl-1H-benzimidazol-2-one] | 0.62 µM
6 | CN(/N=C/c1cnc(-c2ccccc2)s1)C1=NS(=O)(=O)c2ccccc21 [Ex 8, N-methyl-1,1-dioxo-N-[(E)-(2-phenylthiazol-5-yl)methyleneamino]-1,2-benzothiazol-3-amine] | 5.19 µM
7 | 3,3-diethyl-5-[(E)-[isobutyl-(5-methoxy-1,1-dioxo-1,2-benzothiazol-3-yl)hydrazono]methyl]indolin-2-one [Ex 101] | 5.29 µM
8 | CSc1cc(/C=N/N(C)C2=NS(=O)(=O)c3ccccc32)ccc1F [Ex 86, N-[(E)-(4-fluoro-3-methylsulfanyl-phenyl)methyleneamino]-N-methyl-1,1-dioxo-1,2-benzothiazol-3-amine] | 1.31 µM
9 | COc1cc(/C=N/N(CCc2ccccn2)C2=NS(=O)(=O)c3ccccc32)ccc1F [Ex 9, N-[(E)-(4-fluoro-3-methoxy-phenyl)methyleneamino]-1,1-dioxo-N-[2-(2-pyridyl)ethyl]-1,2-benzothiazol-3-amine] | 3.94 µM
10 | COc1cc(/C=N/N(C2=NS(=O)(=O)c3cc(B(O)O)ccc32)C(C)C)ccc1F [Ex 102, [3-[[(E)-(4-fluoro-3-methoxy-phenyl)methyleneamino]-isopropyl-amino]-1,1-dioxo-1,2-benzothiazol-6-yl]boronic acid] | 3.01 µM
11 | COc1cc(C2=NN(C3=NS(=O)(=O)c4ccccc43)CC(C)(C)C2)ccc1F [Ex 110, 3-[6-(4-fluoro-3-methoxy-phenyl)-4,4-dimethyl-3,5-dihydropyridazin-2-yl]-1,2-benzothiazole 1,1-dioxide] | 3.23 µM
12 | CN(/N=C/c1cccc(OCCO)c1)C1=NS(=O)(=O)c2ccccc21 [Ex 2, 2-[3-[(E)-[(1,1-dioxo-1,2-benzothiazol-3-yl)-methyl-hydrazono]methyl]phenoxy]ethanol] | 1.11 µM
13 | CC(C)CN(/N=C/c1ccc2[nH]c(=O)n(C)c2c1)C1=NS(=O)(=O)c2cc(B(O)O)ccc21 [Ex 65, [3-[isobutyl-[(E)-(3-methyl-2-oxo-1H-benzimidazol-5-yl)methyleneamino]amino]-1,1-dioxo-1,2-benzothiazol-6-yl]boronic acid] | 4.04 µM
14 | COc1cc(/C=N/N(CC(C)C)C2=NS(=O)(=O)c3ccccc32)ccc1F [Ex 40, N-[(E)-(4-fluoro-3-methoxy-phenyl)methyleneamino]-N-isobutyl-1,1-dioxo-1,2-benzothiazol-3-amine] | 5.33 µM
15 | COc1cc(/C=N/N(C)C2=NS(=O)(=O)c3ccc([N+](=O)[O-])cc32)ccc1F [Ex 47, N-[(E)-(4-fluoro-3-methoxy-phenyl)methyleneamino]-N-methyl-5-nitro-1,1-dioxo-1,2-benzothiazol-3-amine] | 3.4 µM
16 | COc1cc(/C=N/N(C)C2=NS(=O)(=O)c3cc(B4OCC(C)(C)CO4)ccc32)ccc1F [Ex 59, 6-(5,5-dimethyl-1,3,2-dioxaborinan-2-yl)-N-[(E)-(4-fluoro-3-methoxy-phenyl)methyleneamino]-N-methyl-1,1-dioxo-1,2-benzothiazol-3-amine] | 3.55 µM
17 | COCn1c(=O)n(C2CCC2)c2cc(/C=N/N(C)C3=NS(=O)(=O)c4ccccc43)ccc21 [Ex 111, 3-cyclobutyl-5-[(E)-[(1,1-dioxo-1,2-benzothiazol-3-yl)-methyl-hydrazono]methyl]-1-(methoxymethyl)benzimidazol-2-one] | 8.57 µM
18 | CN(/N=C/c1ccc2c(c1)n(C1CCC1)c(=O)n2COC(=O)C(C)(C)C)C1=NS(=O)(=O)c2ccccc21 [Ex 113, [3-cyclobutyl-5-[(E)-[(1,1-dioxo-1,2-benzothiazol-3-yl)-methyl-hydrazono]methyl]-2-oxo-benzimidazol-1-yl]methyl 2,2-dimethylpropanoate] | 4 µM
19 | CN(/N=C/c1cccc(N(C)C)c1)C1=NS(=O)(=O)c2ccccc21 [Ex 4, N-[(E)-[3-(dimethylamino)phenyl]methyleneamino]-N-methyl-1,1-dioxo-1,2-benzothiazol-3-amine] | 11.9 µM
20 | CCOc1cc(/C=N/N(C)C2=NS(=O)(=O)c3ccccc32)ccc1F [Ex 11, N-[(E)-(3-ethoxy-4-fluoro-phenyl)methyleneamino]-N-methyl-1,1-dioxo-1,2-benzothiazol-3-amine] | 2.85 µM
21 | COc1cc(/C=N/N(CC2CCC2)C2=NS(=O)(=O)c3cc(B(O)O)ccc32)ccc1F [Ex 80, [3-[cyclobutylmethyl-[(E)-(4-fluoro-3-methoxy-phenyl)methyleneamino]amino]-1,1-dioxo-1,2-benzothiazol-6-yl]boronic acid] | 1.07 µM
22 | CCOc1ccc2c(c1)S(=O)(=O)N=C2N(CC(C)C)/N=C/c1ccc2c(c1)C(CC)(CC)C(=O)N2 [Ex 97, 5-[(E)-[(6-ethoxy-1,1-dioxo-1,2-benzothiazol-3-yl)-isobutyl-hydrazono]methyl]-3,3-diethyl-indolin-2-one] | 2.77 µM
23 | CCN(/N=C/c1ccc(F)c(OC)c1)C1=NS(=O)(=O)c2cc(B(O)O)ccc21 [Ex 62, [3-[ethyl-[(E)-(4-fluoro-3-methoxy-phenyl)methyleneamino]amino]-1,1-dioxo-1,2-benzothiazol-6-yl]boronic acid] | 1.98 µM
24 | CCC1(CC)C(=O)Nc2ccc(/C=N/N(CC(C)C)C3=NS(=O)(=O)c4cc(OC(C)C)ccc43)cc21 [Ex 99, 3,3-diethyl-5-[(E)-[isobutyl-(6-isopropoxy-1,1-dioxo-1,2-benzothiazol-3-yl)hydrazono]methyl]indolin-2-one] | 4.14 µM
25 | CCOCn1c(=O)n(C2CCC2)c2cc(/C=N/N(C)C3=NS(=O)(=O)c4ccccc43)ccc21 [Ex 116, 3-cyclobutyl-5-[(E)-[(1,1-dioxo-1,2-benzothiazol-3-yl)-methyl-hydrazono]methyl]-1-(ethoxymethyl)benzimidazol-2-one] | 5.03 µM
26 | CN(/N=C/c1ccc(F)c(C(N)=O)c1)C1=NS(=O)(=O)c2ccccc21 [Ex 17, 5-[(E)-[(1,1-dioxo-1,2-benzothiazol-3-yl)-methyl-hydrazono]methyl]-2-fluoro-benzamide] | 2.75 µM
27 | CCCOc1cc(/C=N/N(C)C2=NS(=O)(=O)c3ccccc32)ccc1F [Ex 12, N-[(E)-(4-fluoro-3-propoxy-phenyl)methyleneamino]-N-methyl-1,1-dioxo-1,2-benzothiazol-3-amine] | 1.56 µM

Same assay, conditions: HEK293 cells, compounds 0.1 μM to 30 μM, 24 h, luciferase activity

Row | Molecule | Max Act. (%), TEAD-GAL4 Transactivation activity
28 | 3,3-diethyl-5-[(E)-[isobutyl-(5-methoxy-1,1-dioxo-1,2-benzothiazol-3-yl)hydrazono]methyl]indolin-2-one [Ex 101] | 90%
29 | COc1cc(/C=N/N(CC(C)C)C2=NS(=O)(=O)c3cc(OCC(N)=O)ccc32)ccc1F [Ex 104, 2-[[3-[[(E)-(4-fluoro-3-methoxy-phenyl)methyleneamino]-isobutyl. amino]-1,1-dioxo-1,2-benzothiazol-6-yl]oxy]acetamide] | 72%
